Experimental data reported in patent US20110245249A1, “Heterocyclically Substituted Anilinopyrimidines” (Bayer CropScience AG, priority 2008, published 2011).

What was measured:
[1] = test system: Production of Fumonisin FB1 by Fusarium proliferatum; assay: Production of Fumonisin FB1 by Fusarium proliferatum; assay type: cell-based; conditions: FB1 in liquid medium after 6 days at 20° C., HPLC-MS/MS; for IC50: Fusarium proliferatum, 144 h, read-out: pI50 Fum (converted)
[2] = test system: Fusarium proliferatum; assay: Growth of Fusarium proliferatum (OD620) in the fumonisin test; assay type: cell-based; conditions: for IC50: Fusarium proliferatum, 144 h, read-out: pI50 growth; for pI50 growth: OD620 at the beginning and after 6 days
[3] = test system: Production of DON/acetyl-DON by Fusarium graminearum; assay: microbe, parasite or virus in culture; assay type: cell-based; conditions: 168 h, 7 days at 28° C., read-out: activity in the inhibition of DON/AcDON
[4] = logP by HPLC on reversed-phase columns (EEC Directive 79/831 Annex V.A8); assay type: physicochemical
In short: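 Reversed-phase C18 HPLC per EEC Directive 79/831 Annex V.A8, 10→95% acetonitrile linear gradient. Acidic runs: pH 2.3 with 0.1% aqueous phosphoric acid (HPLC), or pH 2.7 LC-MS with 0.1% formic acid in both phases. Neutral LC-MS at pH 7.8 using 0.001 molar aqueous ammonium bicarbonate.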

[5] = test system: Phakopsora pachyrhizi; assay: Phakopsora test (soya beans)/protective; assay type: in vivo; conditions: protective, active compound concentration 250 ppm, evaluation 1 day after inoculation
Method: Phakopsora Test (Soya Beans)/Protective
Evaluation is carried out 1 day after the inoculation.

Clc1cnc(Nc2cccc(C3OCCO3)c2)nc1NC1CC1 [Example 1, 5-Chloro-N^4-cyclopropyl-N^2-[3-(1,3-dioxolan-2-yl)phenyl]pyrimidine-2,4-diamine]
IC50 [1]: 158 nM | IC50 [2]: 398 nM | inhibition at 50 µM [3]: > 80% | chromatographic logP ([4]; pH 2.7, log p [b]): 1.59 | chromatographic logP ([4]; pH 2.7, logP (pH 2.7)): 1.59 | chromatographic logP ([4]; pH 7.8, log p [c]): 2.67

Clc1cnc(Nc2cccc(C3OCCCO3)c2)nc1NC1CC1 [Example 5, 5-Chloro-N^4-cyclopropyl-N^2-[3-(1,3-dioxan-2-yl)phenyl]pyrimidine-2,4-diamine]
IC50 [1]: 251 nM | IC50 [2]: 794 nM | chromatographic logP ([4]; pH 2.7, log p [b]): 1.69 | chromatographic logP ([4]; pH 2.7, logP (pH 2.7)): 1.69 | chromatographic logP ([4]; pH 7.8, log p [c]): 2.83

CC1(c2cccc(Nc3ncc(Cl)c(NC4CC4)n3)c2)OCCCO1 [Example 6]
pI50 growth [2]: 5.5

CC1(c2cccc(Nc3ncc(Cl)c(NC4CC4)n3)c2)OCCO1 [Example 12, 5-Chloro-N^4-cyclopropyl-N^2-[3-(2-methyl-1,3-dioxolan-2-yl)phenyl]pyrimidine-2,4-diamine]
IC50 [1]: 501 nM | IC50 [2]: 1580 nM | chromatographic logP ([4]; pH 2.7, log p [b]): 1.9 | chromatographic logP ([4]; pH 2.7, logP (pH 2.7)): 1.9 | chromatographic logP ([4]; pH 7.8, log p [c]): 3.09

CC1OC(c2cccc(Nc3ncc(Br)c(NC4CC4)n3)c2)OC1C (centres unmarked) [Example 14]
pI50 growth [2]: 5.5 | log p [b] ([4]; pH 2.7): 2.31 | log p [c] ([4]; pH 7.8): 3.5

CC1(C)COC(c2cccc(Nc3ncc(Br)c(NC4CC4)n3)c2)OC1 [Example 16]
pI50 Fum [1]: 6 | log p [b] ([4]; pH 2.7): 2.65 | log p [c] ([4]; pH 7.8): 3.9

FC(F)(F)c1cnc(Nc2cccc(C3OCCO3)c2)nc1NC1CCC1 [Example 22]
pI50 growth [2]: 5.5 | log p [b] ([4]; pH 2.7): 3.06 | log p [c] ([4]; pH 7.8): 3.57

CN(c1nc(Nc2cccc(C3OCCO3)c2)ncc1Cl)C1CC1 [Example 23]
pI50 growth [2]: 4.9 | log p [b] ([4]; pH 2.7): 2.52 | log p [c] ([4]; pH 7.8): 3.45

FC(F)(F)c1cnc(Nc2cccc(C3OCCO3)c2)nc1NC1CC1 [Example 24]
pI50 Fum [1]: 6 | pI50 growth [2]: 5.5 | log p [b] ([4]; pH 2.7): 3.7 | log p [c] ([4]; pH 7.8): 3.02

CC1(c2ccc(Nc3ncc(Cl)c(NC4CC4)n3)cc2)OCCO1 [Example 27, 5-Chloro-N^4-cyclopropyl-N^2-[4-(2-methyl-1,3-dioxolan-2-yl)phenyl]pyrimidine-2,4-diamine]
IC50 [1]: 398 nM | IC50 [2]: 1000 nM | chromatographic logP ([4]; pH 2.7, log p [b]): 1.84 | chromatographic logP ([4]; pH 2.7, logP (pH 2.7)): 1.84 | chromatographic logP ([4]; pH 7.8, log p [c]): 2.99

COCC1COC(c2cccc(Nc3ncc(Cl)c(NC4CC4)n3)c2)O1 (centres unmarked) [Example 28]
pI50 Fum [1]: 6.5 | log p [b] ([4]; pH 2.7): 2.21 | log p [c] ([4]; pH 7.8): 2.81

CC(C)(C)C1COC(c2cccc(Nc3ncc(Cl)c(NC4CC4)n3)c2)O1 (centres unmarked) [Example 30]
pI50 Fum [1]: 6 | pI50 growth [2]: 5.3 | log p [c] ([4]; pH 7.8): 4.34[c]

COCC1COC(c2cccc(Nc3ncc(C(F)(F)F)c(NC4CC4)n3)c2)O1 (centres unmarked) [Example 105]
efficacy [5]: ≥ 80% | pI50 growth [2]: 5.5 | log p [a] ([4]; pH 2.3): 2.26 | log p [b] ([4]; pH 2.7): 2.74[b] | log p [c] ([4]; pH 7.8): 3.23

CC1CSC(c2cccc(Nc3ncc(Br)c(NC4CC4)n3)c2)S1 (centres unmarked) [Example 167]
log p ([4]; pH 2.7): 3.1 | log p ([4]; pH 7.8): 4.31

OCC1CSC(c2cccc(Nc3ncc(C(F)(F)F)c(NC4CC4)n3)c2)S1 (centres unmarked) [Example 168]
log p ([4]; pH 2.7): 2.65 | log p ([4]; pH 7.8): 3.03
